Experimental findings from US20150299250A1, “MACROCYCLIC COMPOUNDS AND USES THEREOF” (ADELAIDE RESEARCH & INNOVATION PTY LTD, priority 2012, published 2015) are described below.

Assay [1] relates to normal cell lines (fibroblasts, osteoblasts). Kind of assay: Cell viability assay, normal cell lines (average). In kind it is cell-based. The following applies: Homo sapiens; average of fibroblasts and osteoblasts. Here is the method: (§1) Cell viability assays were performed as previously described. Briefly, cells were seeded in 96 well microtiterplates at a density of 3×10^4 cells per well in the presence of the indicated chemical. Cells were harvested 48 hours post-treatment, centrifuged at 1,300×g, washed in phosphate-buffered saline (PBS) and stained with 7AAD solution (2 μg/mL) (7-amino-actinomycin-D, Invitrogen, Carlsbad, Calif.) for 10 mins at room temperature. Viable cells were determined with the use of a FACS Calibur flow cytometer (Becton Dickinson Immunocytometry Systems), and analyzed with the use of FLOWJO (Tree Star, Inc) and GraphPad Prism (GraphPad Software Inc).
(§2) WE-68 and VH-64 Ewing's sarcoma cells were kindly supplied by F. van Valen (Department of Orthopaedic Surgery, Westfalische-Wilhelms-University, Germany).TC-252 and STA-ET-1 Ewing's sarcoma cells were kindly provided by G. Hamilton (Department of Surgery, University of Vienna, Austria) or P. Ambros (Children's Cancer Research Institute, St Anna Children's Hospital, Vienna, Austria). Primary human embryonic fibroblasts or primary human osteoblasts were collected from the Women's and Children's Hospital (North Adelaide, South Australia, Australia) or Royal Adelaide Hospital with patient consent. Mouse Embryonic Fibroblasts (MEFs) and its p53-null derivative were kindly supplied by Guillermina Lozano (Department of Genetics, Anderson Cancer Centre, University of Texas, Houston, Tex., USA). WE-68 cell lines were grown in RPMI-1640 media, whilst human embryonic fibroblasts and MEFs were grown in Dulbecco's Modified Eagle's Medium (DMEM). Media was supplemented with 10% FCS, 1% PSG and 10 mM HEPES. All cells were maintained at 37° C. in a humidified atmosphere of 5% CO2.

Assay [2] has as its system STA-ET-1 Ewing's sarcoma cells. The assay can be described thus: Cell viability assay (7AAD, 48 hours), STA-ET-1. In kind it is cell-based. The following applies: 48 hours exposure; read-out: Cancer cell lines IC50 (μM) STA-ET-1. Here is the method: as §1, §2
For assay [3], the system named is TC-252 Ewing's sarcoma cells. Kind of assay: Cell viability assay (7AAD, 48 hours), TC-252. In kind it is cell-based. The following applies: 48 hours exposure; read-out: Cancer cell lines IC50 (μM) TC-252. The protocol:
as §1, §2

In assay [4] the test system is panel of sarcoma cell lines (WE-68, VH-64, STA-ET-1, TC-252). The assay can be described thus: Cell viability assay, panel of four sarcoma cell lines (average). Format: cell-based. The following applies: for IC50: average of four sarcoma cell lines, read-out: Average IC50 for cancer cell lines. The protocol: as §1, §2
The test system of assay [5] is primary human osteoblasts. The assay can be described thus: Cell viability assay (7AAD, 48 hours), normal osteoblasts. Format: cell-based. The following applies: Osteoblast, 48 hours exposure, read-out: Normal cell lines IC50 (μM) Osteoblasts. Here is the method:
as §1, §2

The subject of assay [6] is VH-64 Ewing's sarcoma cells. The assay can be described thus: Cell viability assay (7AAD, 48 hours), VH-64. Format: cell-based. As to conditions: 48 hours exposure; read-out: Cancer cell lines IC50 (μM) VH-64. Here is the method: as §1, §2
Assay [7] concerns the target T1, 20S proteasome CP-L activity (Oryctolagus cuniculus, UniProt A0A5F9DQW2).
T1 construct: Purified rabbit 20S proteasome
Kind of assay: In vitro proteasome activity assay, CP-L (Z-nLPnLD-AMC). In kind it is biochemical, rabbit. As to conditions: purified 20S proteasome; highest concentration tested 25,000 nM. Here is the method: We initially determined the ability of the novel tripeptide MG132 analogues 1-6 and the macrocycles 3a and 4a to inhibit the three separate protease activities of the 20S proteasome (CT-L, -T-L and CP-L). The assays were performed in vitro using purified 20S proteasome/inhibitor mixtures, with the activity of each subunit of the proteasome assessed upon incubation with its respective target peptide. […] In addition, there is no apparent clear-cut preference for the length of tether (compare compounds 1 to 4), while the introduction of an aryl group at P3 (as in 6) is well tolerated.
Purified rabbit 20S proteasome and fluorogenic CT-L substrate (Suc-LLVY-AMC) were purchased from Boston Biochem (Cambridge, Mass., USA). The T-L and CP-L fluorogenic substrates (Ac-RLR-AMC and Z-nLPnLD-AMC) were purchased from Enzo Life Sciences (Farmingdale, N.Y., USA). The 20S proteasome was diluted to 0.2 μg/μL in 20S proteasome buffer (50 mM HEPES pH 7.6, 150 mM NaCl and 1 mM DDT) and stored at −80° C. Purified 20S proteasome (8 ng) was pre-incubated with the indicated concentrations of inhibitors for 15 minutes and subsequently added to the AMC-labeled substrate peptide (50 μM) in assay buffer (25 mM HEPES, pH 7.5, 0.5 mM EDTA, 0.05% NP-40, and 0.001% SDS (w/v)) at 37° C. for 2 hours. Fluorescent substrate cleavage by the 20S proteasome was linear during this incubation timeframe (Supplementary Figure S4. Hydrolysed 7-amino-4-methylcoumarin (AMC) was subsequently detected with the FLUOstar OPTIMA microplatefluorometer at excitation/emission of 390/460 nm. The activity was estimated in relative fluorescence units and half of the maximal inhibitory activity of the proteasome is represented by IC50 values. A minimum of three biological replicates were performed for each data point.

Assay [8] concerns WE-68 Ewing's sarcoma cells. Kind of assay: Cell viability assay (7AAD, 48 hours), WE-68. Format: cell-based. As to conditions: 48 hours exposure; read-out: Cancer cell lines IC50 (μM) WE-68. Here is the method: as §1, §2
Assay [9] has as its system primary human embryonic fibroblasts. The assay can be described thus: Cell viability assay (7AAD, 48 hours), normal fibroblasts. In kind it is cell-based. As to conditions: Fibroblast, 48 hours exposure, read-out: Normal cell lines IC50 (μM) Fibroblasts. Here is the method: as §1, §2
The target in assay [10] is T2, 20S proteasome T-L activity (Oryctolagus cuniculus, UniProt G1SWK8).
T2 construct: purchased Boston Biochem
T2 sequence (G1SWK8 1-271): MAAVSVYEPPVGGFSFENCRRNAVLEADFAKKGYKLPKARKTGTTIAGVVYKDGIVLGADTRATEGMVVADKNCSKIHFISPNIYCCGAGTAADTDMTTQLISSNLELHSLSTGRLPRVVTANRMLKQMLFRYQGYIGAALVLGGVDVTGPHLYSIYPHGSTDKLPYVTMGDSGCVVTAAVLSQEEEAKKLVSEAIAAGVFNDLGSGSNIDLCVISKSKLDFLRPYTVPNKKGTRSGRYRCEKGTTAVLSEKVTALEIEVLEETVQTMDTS
The assay can be described thus: In vitro proteasome activity assay, T-L (Ac-RLR-AMC). Format: biochemical, rabbit. The following applies: for IC50: purified 20S proteasome, highest concentration tested 25,000 nM. The protocol:
(§3) The assays were performed in vitro using purified 20S proteasome/inhibitor mixtures, with the activity of each subunit of the proteasome assessed upon incubation with its respective target peptide.
(§4) Purified rabbit 20S proteasome and fluorogenic CT-L substrate (Suc-LLVY-AMC) were purchased from Boston Biochem (Cambridge, Mass., USA). The T-L and CP-L fluorogenic substrates (Ac-RLR-AMC and Z-nLPnLD-AMC) were purchased from Enzo Life Sciences (Farmingdale, N.Y., USA). The 20S proteasome was diluted to 0.2 μg/μL in 20S proteasome buffer (50 mM HEPES pH 7.6, 150 mM NaCl and 1 mM DDT) and stored at −80° C. Purified 20S proteasome (8 ng) was pre-incubated with the indicated concentrations of inhibitors for 15 minutes and subsequently added to the AMC-labeled substrate peptide (50 μM) in assay buffer (25 mM HEPES, pH 7.5, 0.5 mM EDTA, 0.05% NP-40, and 0.001% SDS (w/v)) at 37° C. for 2 hours.

Assay [11] addresses bovine α-chymotrypsin (bCT) (Bos taurus, UniProt P00766). The assay can be described thus: Bovine chymotrypsin spectrophotometric assay (Suc-Ala-Ala-Pro-Phe-pNA). Format: biochemical. Here is the method:
The activity of bCT was assayed spectrophotometrically with a Varian Cary 5000 UV-VIS-NIR spectrophotometer equipped with a thermostated multicell holder at 25.0±0.1° C. Assay buffer was: Tris-HCl (77 mM), CaCl2 (20 mM), pH 7.8 (pH optimum of α-chymotrypsin {3}). A solution of bCT (21.9 μg/mL) in aq HCl (1 mM) was prepared daily by a 1:40 dilution of a stock solution (874 μg/mL) in aq HCl (1 mM) and kept at 0° C. A 1:100 dilution in ice-cold aq HCl (1 mM) was prepared immediately before starting each measurement. Stock solutions of the substrate Suc-Ala-Ala-Pro-Phe-pNA (10 mM) and all inhibitors (5 mM) were freshly prepared in DMSO and stored at r.t. All compounds were analyzed at five different inhibitor concentrations, [I]. Progress curves were monitored at 405 nm over 6 min and characterized by a linear steady state turnover of the substrate.
The Inhibition studies were performed in the presence of 6% v/v DMSO in a volume of 1 mL containing 0.011 μg/mL bCT, different concentrations of Suc-Ala-Ala-Pro-Phe-pNA (10-100 μM) and inhibitor. Into a cuvette containing 890 μL assay buffer, 10 μL of substrate solution (1-10 mM), inhibitor stock, and DMSO were added to give a total volume of […]. After thoroughly mixing the contents of the cuvette, the enzymatic reaction was initiated by adding 50 μL of bCT solution. Uninhibited enzyme activity was determined by adding DMSO instead of inhibitor solution. Non-enzymatic hydrolysis of Suc-Ala-Ala-Pro-Phe-pNA was analyzed by adding DMSO and 1 mM aqueous HCl instead of inhibitor and enzyme solution, respectively, and found to be negligible. The rate of enzyme-catalyzed hydrolysis of 100 μM substrate was determined without inhibitor in each experiment and was set to 100%. Ki values of inhibitors were determined graphically according to Dixon {4} using mean values of percentage rates obtained in three separate experiments at two different substrate concentrations, [S].

Assay [12] concerns the target T3, 20S proteasome chymotrypsin-like (CT-L) activity (Oryctolagus cuniculus, UniProt G1T4Q9).
T3 sequence (G1T4Q9 1-263): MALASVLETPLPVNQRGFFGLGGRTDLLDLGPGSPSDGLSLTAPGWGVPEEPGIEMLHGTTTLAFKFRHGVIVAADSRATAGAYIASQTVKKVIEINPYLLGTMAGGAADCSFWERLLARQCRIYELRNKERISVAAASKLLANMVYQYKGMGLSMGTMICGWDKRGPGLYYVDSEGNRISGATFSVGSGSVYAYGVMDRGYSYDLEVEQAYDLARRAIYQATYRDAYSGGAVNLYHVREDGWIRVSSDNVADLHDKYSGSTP
The assay can be described thus: In vitro proteasome activity assay, CT-L (Suc-LLVY-AMC). In kind it is biochemical, rabbit. As to conditions: purified 20S proteasome. The protocol: as §3, §4

A value given as a limit tells only on which side of the number the result lay.

T1 sequence (A0A5F9DQW2 1-212): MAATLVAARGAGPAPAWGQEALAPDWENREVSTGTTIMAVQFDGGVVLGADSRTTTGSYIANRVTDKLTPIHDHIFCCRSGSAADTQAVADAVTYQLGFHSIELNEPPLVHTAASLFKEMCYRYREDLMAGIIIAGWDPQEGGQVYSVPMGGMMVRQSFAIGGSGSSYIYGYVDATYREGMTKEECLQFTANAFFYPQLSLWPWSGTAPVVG

Broadly, the IC50 is the midpoint of a concentration-inhibition curve. Regarding `CC(C)C[C@H](NC(=O)[C@H](Cc1ccccc1)NC(=O)c1cnccn1)B(O)O` [Bortezomib, reference compound], the IC50 in assay [1] was 150 nM; in [2] it was less than 0.0008 µM; in assay [3] it was 0.01 µM; in [4] it was 20 nM; in [5] it was 0.28 µM; in assay [6], 0.04 µM. Moreover, the IC50 in assay [7] was 438 nM; in assay [8], 0.02 µM; in assay [9] it was 0.02 µM; in [10] it was more than 25000 nM. Also, in [4] (fold change in potency (IC50) against cancer cell line versus normal cell line), the Therapeutic window result is recorded as “×9.1”. The “activation of T-L activity” value in assay [10] is “^fBortezomib activated T-L activity by 32%”.

In general, Ki refers to a measure of affinity in units of concentration, obtained from inhibition or displacement. Lower therefore signals higher affinity. Consider `O=C[C@H](Cc1ccccc1)NC(=O)[C@@H]1CCCCCCCCCCCC(=O)c2ccc([nH]2)C(=O)N1` [Compound 1d, (S)-2,16-dioxo-N—((S)-1-oxo-3-phenylpropan-2-yl)-3,20-diazabicyclo[15.2.1]icosa-1(19),17-diene-4-carboxamide], for which, in assay [11], the affinity, expressed as Ki, was 2520 ± 248 nM.

As to `O=CC(Cc1ccccc1)NC(=O)C1CCCCOc2ccc(cc2)CCC(=O)c2ccc([nH]2)C(=O)N1` (centres unmarked) [Compound 2d], in assay [11], the Ki is 431 ± 5 nM.

`CC(C)CC(C=O)NC(=O)C1Cc2ccc(cc2)OCCCCOc2ccc(cc2)CCC(=O)c2ccc([nH]2)C(=O)N1` (centres unmarked) [Compound 3c] registered an inhibition constant Ki in assay [11] of 1920 ± 167 nM.

Turning to `O=CC(Cc1ccccc1)NC(=O)C1Cc2ccc(cc2)OCCCCOc2ccc(cc2)CCC(=O)c2ccc([nH]2)C(=O)N1` (centres unmarked) [Compound 3d], the inhibition constant Ki in assay [11] came out at 33 ± 5 nM. Compared with the last molecule, the Ki is about 58-fold lower.

In the case of `CC(C)CC1NC(=O)C(NC(=O)OCc2ccccc2)CCCCn2cc(nn2)COc2ccc(cc2)CC(C=O)NC1=O` (centres unmarked) [Compound 4a], the IC50 in [2] is 37.6 µM; in assay [3], 39.4 µM; in assay [12], 250 nM; in assay [4], 31700 nM; in assay [5], more than 50 µM; in assay [6], more than 50 µM. In addition, the IC50 in assay [7] is more than 25000 nM; in [8], 18 µM; in assay [9] it was more than 50 µM; in assay [10] it was more than 25000 nM.
